Series [1] in a line: Half life in Han Wistar rat at 2 mg/kg, iv and po by LC-MS/MS analysis. The series is classed as ADME, organism-based. Set-up: dose 2 mg/kg, route oral. The conditions noted are these: in vivo.
The next series addresses T1, Interstitial collagenase (Homo sapiens, UniProt P03956).
T1 sequence (P03956 whole entry): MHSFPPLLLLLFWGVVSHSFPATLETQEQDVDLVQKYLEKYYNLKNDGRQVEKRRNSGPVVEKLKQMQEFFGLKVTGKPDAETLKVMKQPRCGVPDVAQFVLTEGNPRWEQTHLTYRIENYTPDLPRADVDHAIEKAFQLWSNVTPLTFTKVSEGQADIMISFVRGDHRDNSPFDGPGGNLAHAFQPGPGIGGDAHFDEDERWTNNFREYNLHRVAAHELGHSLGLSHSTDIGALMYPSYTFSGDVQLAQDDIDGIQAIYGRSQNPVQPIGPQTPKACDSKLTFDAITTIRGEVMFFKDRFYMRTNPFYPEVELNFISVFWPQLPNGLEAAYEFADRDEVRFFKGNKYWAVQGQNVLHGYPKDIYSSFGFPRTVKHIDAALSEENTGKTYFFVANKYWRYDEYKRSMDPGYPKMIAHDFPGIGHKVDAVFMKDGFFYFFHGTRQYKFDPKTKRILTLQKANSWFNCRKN
Description: Inhibition of recombinant human MMP1 assessed as substrate cleavage by measuring increase in fluorescence after 16 hrs.

Series [2] is described as follows: Intrinsic clearance in rat hepatocytes measured per 10^6 cells. The series is classed as ADME, cell-based, Liver, Hepatocyte.
In series [3] the target is Voltage-gated inwardly rectifying potassium channel KCNH2 (Homo sapiens, UniProt Q12809). Description: Inhibition of human ERG.
Sequence of Voltage-gated inwardly rectifying potassium channel KCNH2 (Q12809 whole entry): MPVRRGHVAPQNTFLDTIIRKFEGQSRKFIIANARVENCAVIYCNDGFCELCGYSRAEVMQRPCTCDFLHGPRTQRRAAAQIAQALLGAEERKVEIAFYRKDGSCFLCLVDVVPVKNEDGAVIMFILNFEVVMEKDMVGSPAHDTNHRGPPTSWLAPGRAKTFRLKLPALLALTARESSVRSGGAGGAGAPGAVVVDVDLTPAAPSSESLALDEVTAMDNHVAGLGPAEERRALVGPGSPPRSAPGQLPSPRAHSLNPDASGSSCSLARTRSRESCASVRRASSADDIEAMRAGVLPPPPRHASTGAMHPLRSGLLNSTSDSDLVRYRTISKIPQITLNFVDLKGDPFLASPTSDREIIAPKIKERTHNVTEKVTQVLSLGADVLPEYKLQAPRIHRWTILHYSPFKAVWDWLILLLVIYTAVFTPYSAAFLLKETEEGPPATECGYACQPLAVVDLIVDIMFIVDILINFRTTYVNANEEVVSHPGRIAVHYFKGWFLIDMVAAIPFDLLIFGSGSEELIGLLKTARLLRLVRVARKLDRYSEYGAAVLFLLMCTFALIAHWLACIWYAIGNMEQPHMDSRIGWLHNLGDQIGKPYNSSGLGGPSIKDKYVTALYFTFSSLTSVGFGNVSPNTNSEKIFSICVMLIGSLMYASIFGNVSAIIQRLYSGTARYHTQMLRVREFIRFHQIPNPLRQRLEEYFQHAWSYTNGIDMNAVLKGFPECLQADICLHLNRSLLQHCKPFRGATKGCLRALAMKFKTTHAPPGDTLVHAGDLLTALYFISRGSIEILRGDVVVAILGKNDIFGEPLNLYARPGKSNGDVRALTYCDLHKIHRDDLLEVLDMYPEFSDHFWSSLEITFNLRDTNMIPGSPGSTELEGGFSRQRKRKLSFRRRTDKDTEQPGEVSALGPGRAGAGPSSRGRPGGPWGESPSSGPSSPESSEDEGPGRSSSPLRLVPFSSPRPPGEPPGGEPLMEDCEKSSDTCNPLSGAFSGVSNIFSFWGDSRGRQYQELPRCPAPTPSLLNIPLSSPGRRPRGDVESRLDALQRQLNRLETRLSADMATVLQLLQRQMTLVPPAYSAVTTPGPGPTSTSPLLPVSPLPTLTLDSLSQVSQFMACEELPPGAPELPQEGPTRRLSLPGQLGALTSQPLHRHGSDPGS
In the next series the target is Cytochrome P450 3A4 (Homo sapiens, UniProt P08684). Nature of the series: Inhibition of CYP3A4. The series is classed as ADME.
Sequence of Cytochrome P450 3A4 (P08684 whole entry): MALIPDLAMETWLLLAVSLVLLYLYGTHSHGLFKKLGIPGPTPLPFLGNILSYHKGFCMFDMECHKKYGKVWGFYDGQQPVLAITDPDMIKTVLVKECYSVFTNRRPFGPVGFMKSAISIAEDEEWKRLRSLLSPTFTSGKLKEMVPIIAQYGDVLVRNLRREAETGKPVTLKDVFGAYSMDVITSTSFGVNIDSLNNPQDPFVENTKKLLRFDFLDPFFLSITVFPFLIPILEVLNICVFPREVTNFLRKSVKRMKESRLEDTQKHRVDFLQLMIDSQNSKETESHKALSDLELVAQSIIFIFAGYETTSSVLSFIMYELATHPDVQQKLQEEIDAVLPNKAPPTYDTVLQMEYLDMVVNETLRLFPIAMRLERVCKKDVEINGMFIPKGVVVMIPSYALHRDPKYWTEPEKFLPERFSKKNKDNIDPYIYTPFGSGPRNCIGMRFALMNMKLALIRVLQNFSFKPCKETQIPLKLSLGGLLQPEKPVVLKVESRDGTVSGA
The nature of series [4]: Oral bioavailability in Han Wistar rat at 3 to 10 mg/kg by LC-MS/MS analysis. The series is classed as ADME, organism-based. Particulars: in vivo.
The target in the next series is Collagenase 3 (Homo sapiens, UniProt P45452). Nature of the series: Inhibition of recombinant human MMP13 assessed as substrate cleavage by measuring increase in fluorescence after 16 hrs.
Series [5] concerns the target Matrix metalloproteinase-14 (Homo sapiens, UniProt P50281). Description: Inhibition of recombinant human MMP14 assessed as substrate cleavage by measuring increase in fluorescence after 16 hrs.
Series [6] in a line: Clearance in Han Wistar rat at 2 mg/kg, iv by LC-MS/MS analysis. Also noted: dose 2 mg/kg, route intravenous. Particulars: in vivo. The series is classed as ADME, organism-based.
A short description of series [7]: Intrinsic clearance in human liver microsomes.
A short description of series [8]: Inhibition of aggrecanase-mediated aggrecan degradation in IL-1-stimulated bovine nasal cartilage explant after 48 hrs by immunoblot method. The series is classed as tissue-based, Bos taurus.
Series [9] is described as follows: Half life in Beagle dog at 1 mg/kg, iv and po by LC-MS/MS analysis. Set-up: dose 1 mg/kg, route oral. The series is classed as ADME, organism-based, Canis lupus familiaris. The conditions noted are these: in vivo.
Series [10] in a line: Clearance in Beagle dog at 1 mg/kg, iv by LC-MS/MS analysis. The series is classed as ADME, organism-based, Canis lupus familiaris. Also noted: dose 1 mg/kg, route intravenous. Particulars: in vivo.
Series [11] can be described thus: Oral bioavailability in mouse by LC-MS/MS analysis. The series is classed as ADME, organism-based. Particulars: in vivo.
For series [12], the target named is Disintegrin and metalloproteinase domain-containing protein 17 (Homo sapiens, UniProt P78536). Description: Inhibition of TACE assessed as substrate cleavage by measuring increase in fluorescence after 16 hrs.
Sequence of Disintegrin and metalloproteinase domain-containing protein 17 (P78536 whole entry, the tested form may be a part): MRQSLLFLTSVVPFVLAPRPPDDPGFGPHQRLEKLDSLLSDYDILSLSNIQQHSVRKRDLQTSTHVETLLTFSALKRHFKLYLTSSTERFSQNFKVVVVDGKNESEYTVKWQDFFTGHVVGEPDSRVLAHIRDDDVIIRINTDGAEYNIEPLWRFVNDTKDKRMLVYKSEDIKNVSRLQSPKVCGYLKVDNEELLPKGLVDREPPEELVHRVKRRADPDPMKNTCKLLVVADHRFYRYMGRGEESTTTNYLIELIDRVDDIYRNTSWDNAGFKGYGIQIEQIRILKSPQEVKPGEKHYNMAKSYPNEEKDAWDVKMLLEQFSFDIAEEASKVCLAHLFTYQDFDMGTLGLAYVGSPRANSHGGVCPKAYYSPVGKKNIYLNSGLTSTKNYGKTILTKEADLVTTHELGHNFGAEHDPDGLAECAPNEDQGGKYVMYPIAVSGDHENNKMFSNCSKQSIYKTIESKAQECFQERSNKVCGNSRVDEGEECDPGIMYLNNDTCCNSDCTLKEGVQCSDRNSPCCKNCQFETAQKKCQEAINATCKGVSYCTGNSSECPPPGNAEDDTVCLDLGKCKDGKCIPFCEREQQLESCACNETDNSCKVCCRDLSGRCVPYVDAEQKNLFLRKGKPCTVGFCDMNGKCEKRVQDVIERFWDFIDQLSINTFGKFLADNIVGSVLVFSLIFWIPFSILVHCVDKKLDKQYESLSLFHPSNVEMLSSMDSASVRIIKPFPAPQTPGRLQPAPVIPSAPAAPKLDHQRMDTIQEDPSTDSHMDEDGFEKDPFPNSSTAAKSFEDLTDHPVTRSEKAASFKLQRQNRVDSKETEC
In another series the test system is Rattus norvegicus. Nature of the series: Volume of distribution at steady state in Han Wistar rat at 2 mg/kg, iv and po by LC-MS/MS analysis. The series is classed as ADME, organism-based. Also noted: dose 2 mg/kg, route oral. The conditions noted are these: in vivo.
The nature of series [13]: Oral bioavailability in Beagle dog at 1 mg/kg by LC-MS/MS analysis. The conditions noted are these: in vivo. The series is classed as ADME, organism-based, Canis lupus familiaris.
A further series deals with Canis familiaris. Nature of the series: Volume of distribution at steady state in Beagle dog at 1 mg/kg, iv and po by LC-MS/MS analysis. The series is classed as ADME, organism-based, Canis lupus familiaris. Also noted: dose 1 mg/kg, route oral. The conditions noted are these: in vivo.
Series [14] can be described thus: Oral bioavailability in Han Wistar rat at 2 mg/kg by LC-MS/MS analysis. The series is classed as ADME, organism-based. The conditions noted are these: in vivo.
Series [15] deals with 72 kDa type IV collagenase (Homo sapiens, UniProt P08253). Nature of the series: Inhibition of recombinant human MMP2 assessed as substrate cleavage by measuring increase in fluorescence after 16 hrs.
Sequence of 72 kDa type IV collagenase (P08253 whole entry): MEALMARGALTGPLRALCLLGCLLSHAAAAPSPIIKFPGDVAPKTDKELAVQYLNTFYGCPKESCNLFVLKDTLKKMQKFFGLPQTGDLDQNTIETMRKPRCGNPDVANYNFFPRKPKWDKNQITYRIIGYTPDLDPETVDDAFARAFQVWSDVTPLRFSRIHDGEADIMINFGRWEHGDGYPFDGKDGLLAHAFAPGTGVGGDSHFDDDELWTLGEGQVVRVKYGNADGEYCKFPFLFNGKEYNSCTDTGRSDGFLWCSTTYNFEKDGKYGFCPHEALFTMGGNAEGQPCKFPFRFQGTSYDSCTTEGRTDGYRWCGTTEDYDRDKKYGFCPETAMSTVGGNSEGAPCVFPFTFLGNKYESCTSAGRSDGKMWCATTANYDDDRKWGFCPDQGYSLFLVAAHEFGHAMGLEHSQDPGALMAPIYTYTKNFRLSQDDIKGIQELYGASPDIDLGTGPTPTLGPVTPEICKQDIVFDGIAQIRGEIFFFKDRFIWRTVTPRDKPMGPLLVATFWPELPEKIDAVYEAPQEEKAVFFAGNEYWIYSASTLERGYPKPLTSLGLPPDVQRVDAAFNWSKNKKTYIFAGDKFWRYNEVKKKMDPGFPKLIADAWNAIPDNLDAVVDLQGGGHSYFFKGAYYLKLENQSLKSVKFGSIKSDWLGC
Series [16] in a line: Inhibition of aggrecanase-mediated aggrecan degradation in IL-1 and oncostatin M-stimulated human knee osteoarthritic cartilage after 48 hrs by immunoblot method.

In series [1], `C[C@@H](C[C@@](C)(CS(=O)(=O)N1CCC(OCc2ccc(Cl)cc2Cl)CC1)N(O)C=O)c1ncc(F)cn1` showed a half-life of 0.3 h. In addition, the IC50 at Interstitial collagenase was greater than 10 µM; in series [3], 8 µM; on Cytochrome P450 3A4 it was greater than 10 µM; at Collagenase 3, 0.43 µM; in series [5], 0.43 µM. The molecule further came in with a hepatocyte CLint in series [2] of 56.9 µL/min/1e6 cells. In [4], this molecule returned a bioavailability of 0%. For the same molecule, the clearance in series [6] worked out at 130 mL/min/kg. The molecule also displayed a microsomal CLint in series [7] of 107 µL/min/mg.
Regarding `Cc1noc(C)c1CCC1CCN(S(=O)(=O)C[C@](C)(C[C@H](C)c2ncc(F)cn2)N(O)C=O)CC1`, the half-life was 11 h in [1] and 11.3 h in series [9]. Further, the IC50 in [8] was 0.31 µM; at Interstitial collagenase it was greater than 19 µM; on Collagenase 3 it was greater than 8.1 µM; in series [5], greater than 8.9 µM; in [12], 0.25 µM; in [15], greater than 6.3 µM. In series [16], this molecule showed an IC50 of 0.243 µM. Besides, the figures for the clearance in series [10] and in [6] were 20 mL/min/kg and 11 mL/min/kg, respectively. The values for the bioavailability in series [11], in series [13] and in [14] were 34%, 20% and 3.5%, respectively. In addition, the figures for the Vdss in the series on Rattus norvegicus and in the series with Canis familiaris were 7.4 L/kg and 9.21 L/kg, respectively.

The values above are taken from ChEMBL document CHEMBL1681676, “The design and synthesis of novel N-hydroxyformamide inhibitors of ADAM-TS4 for the treatment of osteoarthritis” (Bioorg Med Chem Lett, 2011).
